Entries after “also recorded” stand apart in the source; their conditions may differ.

Results on one compound are retold here after patent US20030207933A1, “Compositions and methods for increasing the sensitivity of apoptosis-resistant tumor cells to inducers of apoptosis” (priority 2002, published 2003).

For one data set, the system named is Bcl-2. Nature of the data set: Western blot for expression of Bcl-2 in RIF-1 tumors in vivo. Also noted: species or system mice. The settings on record: day 15. An excerpt:
Cells were dissociated, lysed, and the nuclei and mitochondria separated by differential centrifugation. RIF-1 cells cultured in vitro were processed in a similar manner as a positive control. Equal amounts of protein extracts were separated by electrophoresis and analyzed by Western blot for expression of Bcl-2. […] The pattern of Bcl-2 expression was similar in the nuclei, although the overall levels were lower than in the mitochondria. […] Most likely, this discrepancy can be explained by the fact that this line is transfected with exogenous Bcl-2, whereas the RIF-1 line expresses endogenous Bcl-2 under control of its natural promoter. […] Alternatively, W-188 and W-143 may differ in their mechanisms of action, although this conclusion seems less likely in view of the structural similarity of these two compounds.
For orientation: A western blot detects proteins with antibodies after separation by electrophoresis.

In a further data set the test system is HL-60 Bcl-2 cells. Nature of the data set: DNA fragmentation (release of 3H-labeled DNA fragments) in Bcl-2-transfected HL-60 cells. Type of data set: cell-based, human.
The next data set deals with RIF-1 fibrosarcoma. The data set is described as follows: RIF-1 fibrosarcoma tumor growth in vivo. The settings on record: for Inhibition of tumor growth compared to vehicle control: day 15. Also noted: species or system mice. An excerpt:
The present study tested in the ability of W-188 to synergize with Dox and inhibit tumor growth in vivo. The RIF-1 fibrosarcoma model was used because this model has been well-characterized, and naturally expresses high Bcl-2 levels and has a consistent growth pattern (Nahabedian, M. Y., et al., J. Natl. Can. Inst., 1988, 80:739; Chang, M-J., et al., Cancer Res., 1994, 54:5380; Srivastana, M., et al., J. Biol. Chem., 2001, 276:15481).
Groups of five mice each were inoculated s.c. with RIF-1 cells. The tumors were allowed to grow for 12 days to a size of 0.5 cm diameter, which was designated day 0. The mice were then given five i.p. injections every other day with vehicle, Dox 2.5 mg/kg, Dox 5.0 mg/kg, W-188 100 mg/kg, and Dox 5.0 mg/kg+W-188 100 mg/kg. The mice were weighed and the tumor size measured every day.
The protocol was similar to that described for the W-188 experiment in Example 8, except that in this study, mice with established tumors received only three injections of W-143 or Dox every other day starting on day 0.

In the next data set the test system is Ramos B lymphoma cells. Nature of the data set: Dox cytotoxicity by trypan blue exclusion in Ramos cells. The settings on record: 24 hr. It counts as cell-based. As for the experimental part: In the present study, the sensitizing activity of W-188 and W-143 was tested in the Raji and Ramos cell lines. Since these two human B lymphoma lines naturally express high levels of anti-apoptotic Bcl-2 proteins, they may be more clinically relevant than the transfected HL-60-Bcl-2 line.
The sensitizing effects of W-143 and W-188 were first tested on these lines in vitro. […] Ramos cells were cultured with different concentrations of Dox with and without W-143 or W-188 at 20 μg/ml for 24 hr, and then viability assessed microscopically by counting at least 100 cells.

The subject of data set [1] is mice. Nature of the data set: Acute single dose toxicity. It counts as in vivo. The settings on record: 1000 mg/kg single dose. The method, then: The present study assessed the acute single-dose toxicity of W-188 and W-143.
Solutions of W-188 were dissolved in DMSO and injected i.p. in groups of three mice each as well as vehicle control at 500 mg/kg.
Since W-143 is water-soluble, higher doses could be tested.
Therefore, the MTD (maximum tolerated dose) for a single dose of either compound is estimated to be 500 mg/kg.

Data set [2] in a line: Body weight of RIF-1 tumor bearing mice.
Description: Groups of five mice each were inoculated s.c. with RIF-1 cells. The tumors were allowed to grow for 12 days to a size of 0.5 cm diameter, which was designated day 0. […] The mice were weighed and the tumor size measured every day.
The nature of another data set: Water solubility. Type of data set: physicochemical.
Data set [3] has as its system mice. The data set is described as follows: Multiple dose toxicity with histopathological analysis. Type of data set: in vivo. The method, then: In the present study, more extensive toxicity studies with histopathological analysis of seven different tissues was performed on W-143 at a commercial lab.
Groups of six mice (3 male and 3 females) each were given three i.p. injections at two day intervals of vehicle, doxorubicin 5 mg/kg alone, W-143 200 mg/kg alone or both together. On day 5 and day 15 after the last injection, mice were sacrificed, necropsied, and tissue samples processed. Tissues examined include bone marrow, liver, heart, small and large intestine, 1 sex organ, and kidney.

Where [4] appears, read: W-143 100 mg/kg alone, data not shown.

On to `CCC1=C(C)C(=O)NC1C` (centres unmarked) [W-143, 3,5-dimethyl-4-ethyl-2-oxo-2,5-dihydropyrrole], for which the “Bcl-2 expression in tumor cell mitochondria” value with Bcl-2 (Dox + W-143, FIG. 16 lane 10) is listed as “no detectable Bcl-2”; in the data set with Bcl-2 (W-143 alone, FIG. 16), “expressed high levels of Bcl-2”. Moreover, in the data set with HL-60 Bcl-2 cells, the “Sensitization to etoposide-induced apoptosis” value is “sensitize 1L-60-Bcl-2 cells to etoposide-induced apoptosis”. In addition, the “% DNA Fragmentation” value in the data set with HL-60 Bcl-2 cells (Exp 5, etoposide 10 μM + compound 10 μM) came to 34%. Further, the “Inhibition of tumor growth compared to vehicle control” value in the data set on RIF-1 fibrosarcoma (Dox + W-143 100 mg/kg, p=0.005) was found to be 70%; in the data set with RIF-1 fibrosarcoma (Dox + W-143 200 mg/kg, p=0.001), 83%. Further, the “Effect on tumor growth” value is “did not decrease tumor growth” in the data set on RIF-1 fibrosarcoma (setting [4]); “only a small effect on tumor growth” in the data set on RIF-1 fibrosarcoma (W-143 200 mg/kg alone, three injections, FIG. 14); “synergistically inhibited tumor growth” in the data set on RIF-1 fibrosarcoma (W-143 + Dox combined). Also, the “Toxicity of compound alone” value with Ramos B lymphoma cells (20 μg/ml, no Dox) was “completely nontoxic”. Further, the “Increase of cytotoxicity mediated by Dox” value with Ramos B lymphoma cells (compound 20 μg/ml + Dox, FIG. 6) was “over two fold”. The Deaths entry with mice [1] is reported as “All three mice injected with 1000 mg/kg of W-143 died within 24 h”. Also, the Body weight entry is “did not show any greater weight loss” in data set [2] (Dox + W-143 100 mg/kg, any time point); “weighed just as much as mice treated with Dox alone on day 13” in data set [2] (Dox + W-143 200 mg/kg, day 13); “weighed similar to the vehicle control mice” in data set [2] (setting [4]). In “Water solubility”, the Water solubility entry was “water soluble; also recorded: water-soluble”. The Histopathology entry with mice [3] (W-143 200 mg/kg alone, three i.p. injections at two day intervals, day 5) is “minor vacuolar changes in the liver”; in the data set with mice [3] (W-143 200 mg/kg alone, day 15) it was “all tissues were normal”; with mice [3] (doxorubicin 5 mg/kg + W-143 200 mg/kg, three i.p. injections, day 5), “minor vacuolar changes in the liver”; in the data set on mice [3] (doxorubicin 5 mg/kg + W-143 200 mg/kg, day 15), “all tissues were normal”.
